# From PubChem BioAssay (NCI)
#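 Interpolation was linear, between the two tested concentrations surrounding the appropriate level; five concentrations were tested over 48 hours in 96-well plates. The concentration for full growth arrest is given as TGI.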
# How the values were obtained:
# Assay in all cases: NCI anticancer screen, dose series, 48 h
# 786-0 renal = tested on: 786-0 renal
# A498 renal = tested on: A498 renal
# A549 NSCLC = tested on: A549 NSCLC
# ACHN renal = tested on: ACHN renal
# BT-549 breast = tested on: BT-549 breast
# CAKI-1 renal = tested on: CAKI-1 renal
# CCRF-CEM leukemia = tested on: CCRF-CEM leukemia
# COLO 205 colon = tested on: COLO 205 colon
# DU-145 prostate = tested on: DU-145 prostate
# EKVX NSCLC = tested on: EKVX NSCLC
# HCC-2998 colon = tested on: HCC-2998 colon
# HCT-116 colon = tested on: HCT-116 colon
# HCT-15 colon = tested on: HCT-15 colon
# HL-60(TB) leukemia = tested on: HL-60(TB) leukemia
# HOP-62 NSCLC = tested on: HOP-62 NSCLC
# HOP-92 NSCLC = tested on: HOP-92 NSCLC
# HS 578T breast = tested on: HS 578T breast
# HT29 colon = tested on: HT29 colon
# IGROV1 ovarian = tested on: IGROV1 ovarian
# K-562 leukemia = tested on: K-562 leukemia
# KM12 colon = tested on: KM12 colon
# LOX IMVI melanoma = tested on: LOX IMVI melanoma
# M14 melanoma = tested on: M14 melanoma
# MALME-3M melanoma = tested on: MALME-3M melanoma
# MCF7 breast = tested on: MCF7 breast
# MDA-MB-231 breast = tested on: MDA-MB-231 breast
# MDA-MB-435 = tested on: MDA-MB-435
# MOLT-4 leukemia = tested on: MOLT-4 leukemia
# NCI-H226 lung = tested on: NCI-H226 lung
# NCI-H23 lung = tested on: NCI-H23 lung
# NCI-H460 lung = tested on: NCI-H460 lung
# NCI-H522 lung = tested on: NCI-H522 lung
# NCI/ADR-RES ovarian = tested on: NCI/ADR-RES ovarian
# OVCAR-3 ovarian = tested on: OVCAR-3 ovarian
# OVCAR-4 ovarian = tested on: OVCAR-4 ovarian
# OVCAR-5 ovarian = tested on: OVCAR-5 ovarian
# OVCAR-8 ovarian = tested on: OVCAR-8 ovarian
# PC-3 prostate = tested on: PC-3 prostate
# RPMI-8226 leukemia = tested on: RPMI-8226 leukemia
# RXF 393 renal = tested on: RXF 393 renal
# SF-268 CNS = tested on: SF-268 CNS
# SF-295 CNS = tested on: SF-295 CNS
# SF-539 CNS = tested on: SF-539 CNS
# SK-MEL-2 melanoma = tested on: SK-MEL-2 melanoma
# SK-MEL-28 melanoma = tested on: SK-MEL-28 melanoma
# SK-MEL-5 melanoma = tested on: SK-MEL-5 melanoma
# SK-OV-3 ovarian = tested on: SK-OV-3 ovarian
# SN12C renal = tested on: SN12C renal
# SNB-19 CNS = tested on: SNB-19 CNS
# SNB-75 CNS = tested on: SNB-75 CNS
# SR leukemia = tested on: SR leukemia
# SW-620 colon = tested on: SW-620 colon
# T-47D breast = tested on: T-47D breast
# TK-10 renal = tested on: TK-10 renal
# U251 CNS = tested on: U251 CNS
# UACC-257 melanoma = tested on: UACC-257 melanoma
# UACC-62 melanoma = tested on: UACC-62 melanoma
# UO-31 renal = tested on: UO-31 renal
compound,measurement,setting,value
COC(=O)/C=C/c1ccccc1N=[S@](C)(=O)c1ccc(C)cc1,TGI,786-0 renal,> 100 µM
same,TGI,A498 renal,43.8 µM
same,TGI,A549 NSCLC,> 100 µM
same,TGI,ACHN renal,> 100 µM
same,TGI,BT-549 breast,> 100 µM
same,TGI,CAKI-1 renal,> 100 µM
same,TGI,CCRF-CEM leukemia,44.2 µM
same,TGI,COLO 205 colon,26.7 µM
same,TGI,DU-145 prostate,> 100 µM
same,TGI,EKVX NSCLC,> 100 µM
same,TGI,HCC-2998 colon,50.1 µM
same,TGI,HCT-116 colon,71.8 µM
same,TGI,HCT-15 colon,> 100 µM
same,TGI,HL-60(TB) leukemia,7.25 µM
same,TGI,HOP-62 NSCLC,> 100 µM
same,TGI,HOP-92 NSCLC,> 100 µM
same,TGI,HS 578T breast,64.6 µM
same,TGI,HT29 colon,> 100 µM
same,TGI,IGROV1 ovarian,> 100 µM
same,TGI,K-562 leukemia,> 100 µM
same,TGI,KM12 colon,> 100 µM
same,TGI,LOX IMVI melanoma,> 100 µM
same,TGI,M14 melanoma,55.1 µM
same,TGI,MALME-3M melanoma,> 100 µM
same,TGI,MCF7 breast,> 100 µM
same,TGI,MDA-MB-231 breast,94.4 µM
same,TGI,MDA-MB-435,16.2 µM
same,TGI,MOLT-4 leukemia,> 100 µM
same,TGI,NCI-H226 lung,> 100 µM
same,TGI,NCI-H23 lung,> 100 µM
same,TGI,NCI-H460 lung,49.9 µM
same,TGI,NCI-H522 lung,7.99 µM
same,TGI,NCI/ADR-RES ovarian,72.5 µM
same,TGI,OVCAR-3 ovarian,55.8 µM
same,TGI,OVCAR-4 ovarian,> 100 µM
same,TGI,OVCAR-5 ovarian,> 100 µM
same,TGI,OVCAR-8 ovarian,> 100 µM
same,TGI,PC-3 prostate,> 100 µM
same,TGI,RPMI-8226 leukemia,61.3 µM
same,TGI,RXF 393 renal,37.1 µM
same,TGI,SF-268 CNS,> 100 µM
same,TGI,SF-295 CNS,76.9 µM
same,TGI,SF-539 CNS,> 100 µM
same,TGI,SK-MEL-2 melanoma,70.7 µM
same,TGI,SK-MEL-28 melanoma,> 100 µM
same,TGI,SK-MEL-5 melanoma,38.3 µM
same,TGI,SK-OV-3 ovarian,> 100 µM
same,TGI,SN12C renal,> 100 µM
same,TGI,SNB-19 CNS,> 100 µM
same,TGI,SNB-75 CNS,36.1 µM
same,TGI,SR leukemia,26.7 µM
same,TGI,SW-620 colon,> 100 µM
same,TGI,T-47D breast,> 100 µM
same,TGI,TK-10 renal,71.9 µM
same,TGI,U251 CNS,51 µM
same,TGI,UACC-257 melanoma,56.8 µM
same,TGI,UACC-62 melanoma,> 100 µM
same,TGI,UO-31 renal,> 100 µM
